Results from patent US6500823B1, “Unsaturated hydroximic acid derivatives as per abstract inhibitors” (N-Gene Research Laboratories, Inc., priority 1998, dated 2002).
Counter-ions that a name gives are not always drawn.

Legend:
[1] = test system: carnitine-palmitoyl transferase (CPTI); experiment: Determination of CPTI inhibition; assay type: biochemical; details: None = 100; sub-millimolar concentration range
[2] = test system: mouse HSP-70 gene promoter in mouse fibroblast L929 cells; experiment: HSP-70 promoter-luciferase reporter gene assay; assay type: cell-based; details: Control = 100; 10 μl of 10^-2 M solution to 1 ml culture, 30 min, 1 hour regeneration
Description: The activity of HSP-70 was studied by reporter gene assay forming a DNA hybrid. To the promoter sequence of HSP-70 encoding the heat shock protein was fused a gene of a protein that can be detected by a well-measurable enzyme activity. Biotechnological processes were used. As reporter gene luciferase enzyme was employed, the activity of which can be well determined by luminescence measurement. If the promoter of the gene of the luciferase enzyme is substituted by the promoter of the HSP-70 gene, then the change in the activity of the luciferase enzyme i.e. the change of the frequency of the transcription from the gene correlates with the frequency of the transcription of the HSP-70 gene that proceeds in the given circumstances. In this way, if a substance or process influences the expression of the HJSP-70 gene, the effect can be studied through the measurement of the luciferase enzyme activity. The effect of the substances to be tested on the HSP-70 expression was studied in such an experimental system.
A double-stranded DNA circular molecule i.e. a plasmid containing the HSP-70 reporter gene was constructed to perform the measurements. An almost 600 bp long sequence of the mouse HSP-70 gene promoter (5′ direction from the start site of the gene) was fused to the coding sequence of the luciferase gene originated from Photymus pyralis. The applied promoter sequence contained several protein binding sites facilitating the expression of the HSP-70 gene. The HSP promoter-luciferase heterologous gene construct was built in a pBR based plasmid vector that can be selected for neomycin. This HSP-70-luciferase plasmid was transfected into mouse fibroblast L929 cells. The assay was performed as follows.
The HSP-70-luc plasmid containing L929 cells are grown in DMEM (Dulbecco's Modified Eagle's Medium) medium supplemented with 5% FCS (Fetal Calf Serum). 10^4 cells are plated in the wells of a 24-well Costar cell culture plate in 1 ml of culture medium. Test substances are dissolved in PBS (Phosphate Buffered Saline) in 10^−2 M concentration. After attachment of the cells (3-4 hours after plating) 10 μl of the solution are given to the cultures and cells are incubated for 30 min. at 37° C. in a CO2 thermostat. Culture medium is then changed for fresh one (without test substance) and cells are allowed to regenerate for 1 hour at 37° C., then once washed with PBS. After removal of PBS 40 μl of 1× lysis buffer are added to the cells, and the samples are kept on ice for 30 minutes. Then the samples are transferred into Eppendorf vials and centrifuged at 14000 rpm for 20 min at 4° C. 5 μl of the supernatant is added to 25 μl of luciferase assay buffer and the luminescence of the samples is measured for 25 seconds in a luminometer.

[3] = test system: male SPRD rats; experiment: Reperfusion induced arrhythmia after LAD occlusion, survival rate; assay type: in vivo, rat; details: for responders at 1 mg/kg / responders at 5 mg/kg: Rattus norvegicus, iv, read-out: % SURV; for responders at 5 mg/kg: control 15.38; for effect on survival of reperfusion arrhythmia, in words: compared with Example 2 (100% survival)
Protocol: Experiments were carried out in male SPRD rats (acceptable body weight range: 300-350 g). The animals were anesthetized with sodium pentobarbital (Nembutal®: 60 mg/kg intraperitoneally) and remained breathing spontaneously. The animals were ventilated with respirator (MTA Kutesz) by using trachea cannule which was inserted after tracheotomy. The standard lead of the ECG II is monitored. Right femoral artery was catheterized and connected to a pressure transducer (BPR-01, Experimetria, Hungary), a preamplifier and pulsotachometer (HG-M, Experimetria, Hungary) for arterial blood pressure and heart rate measurement, respectively. The external jugular vein was cannulated for drug administration. After thoracotomy a silk (braided, coated 4-0) was placed under the left anterior coronary (LAD) artery. After a few minutes' stabilization period, a 5 min occlusion of LAD artery was applied, followed by a 10 min reperfusion period. The survival rate was evaluated.

[4] = biological target: T1, poly-ADP-ribose polymerase from rat liver (Rattus norvegicus, UniProt P27008); experiment: In vitro PARP inhibition on isolated enzyme; assay type: biochemical; details: isolated rat liver enzyme; ± SEM from four parallel measurements; read-out: PARP I0.5 mg/l (converted)
T1 construct: We have isolated the poly-ADP-ribose polymerase from rat liver; from tissue; host or cells: rat liver
T1 sequence (P27008 whole entry): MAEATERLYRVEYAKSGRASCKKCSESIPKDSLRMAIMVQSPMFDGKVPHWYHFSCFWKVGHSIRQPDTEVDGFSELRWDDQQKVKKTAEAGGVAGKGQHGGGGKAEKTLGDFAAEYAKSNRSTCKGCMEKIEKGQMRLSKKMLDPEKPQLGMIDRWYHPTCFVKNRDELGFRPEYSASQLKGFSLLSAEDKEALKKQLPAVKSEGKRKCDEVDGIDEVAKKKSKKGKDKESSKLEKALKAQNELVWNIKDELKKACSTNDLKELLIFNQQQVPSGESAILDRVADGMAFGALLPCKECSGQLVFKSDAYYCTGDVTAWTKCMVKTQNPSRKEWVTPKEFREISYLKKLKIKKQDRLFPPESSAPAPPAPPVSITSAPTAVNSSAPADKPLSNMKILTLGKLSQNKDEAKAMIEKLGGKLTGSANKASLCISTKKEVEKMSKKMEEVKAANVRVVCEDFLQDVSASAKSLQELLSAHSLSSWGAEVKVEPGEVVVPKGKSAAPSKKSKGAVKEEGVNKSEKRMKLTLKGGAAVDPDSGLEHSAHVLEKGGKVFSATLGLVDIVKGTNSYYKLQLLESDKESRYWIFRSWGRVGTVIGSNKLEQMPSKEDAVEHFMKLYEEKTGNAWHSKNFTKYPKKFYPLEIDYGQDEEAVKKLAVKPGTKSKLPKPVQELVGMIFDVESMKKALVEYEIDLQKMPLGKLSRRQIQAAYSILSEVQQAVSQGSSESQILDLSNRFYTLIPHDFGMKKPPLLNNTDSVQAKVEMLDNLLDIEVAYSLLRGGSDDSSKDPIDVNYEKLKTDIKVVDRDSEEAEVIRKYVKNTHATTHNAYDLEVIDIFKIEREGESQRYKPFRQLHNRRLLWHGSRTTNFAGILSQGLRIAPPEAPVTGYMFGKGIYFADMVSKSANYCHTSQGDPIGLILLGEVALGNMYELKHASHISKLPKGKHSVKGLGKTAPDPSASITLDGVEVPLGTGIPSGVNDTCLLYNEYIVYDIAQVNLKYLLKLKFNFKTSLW
Protocol: We have isolated the poly-ADP-ribose polymerase from rat liver according to the article Shah.G. M.,Anal Biochem, 227, 1-13 (1995).
We have determined the PARP activation in 130 μl of reaction mixture, which consists of: 100 mM Tris-HCl puffer, pH 8.0, 10 mM MgCl2, 10% glycerol, 1.5 mM DTT, 100 μg of (32P), or (3H), NAD+, 10 μg of histone. We have stopped the reaction after 10 minutes with 8% perchloric acid and seperated the protein through centrifugation (10 minutes, 10.000×g). We have washed the precipitate with 8% perchloric acid, and we measured the radioactivity connected to the protein with scintillation counter.

[5] = biological target: Moloney murine leukemia virus reverse transcriptase (Moloney murine leukemia virus, UniProt P03355); experiment: Reverse transcriptase inhibition, (3H)dTTP incorporation; assay type: biochemical; details: for inhibition at 0.5 µg/mL: concentration 0.5 μg/ml; for inhibition at 1 µg/mL: concentration 1.0 μg/ml; for reverse transcriptase inhibiting effect compared with Nevirapin and AZT, in words: dose dependent, lower than AZT
Protocol: The compounds may be sorted into group of the non-nucleoside type reverse transcriptase inhibitors. Tests were performed on Moloney murine leukemia virus reverse transcriptase that is considered as a good model of the HIV reverse transcriptase enzyme. The experimental assembly was the following.
The assay measures the incorporation of (3H)dTTP into cDNA using poly(dA) template and oligo(dT)12-18 primer. The reaction was carried out in 20 μl volume.
The reaction was started by addition of 5U reverse transcriptase
The reaction mixture was incubated for 40 min at 37° C. Then 15 μl of the reaction mixture was loaded on Whatman DE81 filter discs and filters were washed sequentially with 5% disodium hidrogen phosphate buffer, with water and with 96% (v/v) ethanol. After drying, the filters were placed into scintillation cocktail (OptiPhase, HiSafe, Wallac) and the radioactivity was measured in a Packard Tri-Carb 2200 scintillation counter.
Two compounds with known inhibitory activity were used in the experiments as positive control. AZT is a nucleoside analog while the compound Nevirapin is a non-nucleoside type inhibitor. Nevirapine binds to the so called benzodiazepine binding site of the enzyme. The applied concentrations of the test compounds were in the 0.2-2 μg/ml concentration range.

[6] = test system: HepG2 cells; experiment: LDH enzyme activity in hypoxia exposed HepG2 cells; assay type: cell-based; details: Homo sapiens, 30 μg/ml, hypoxia 1% O2 24 hours, Hypoxic control = 100, read-out: Relative LDH content, %
Protocol: HepG2 cell were cultured in DMEM medium supplemented with 10% FCS in 5% CO2 containing air at 37° C. 10^5 cells were plated in the wells of Costar 24-well culture plates in 1 ml medium. On the following day, cells were treated with the test compounds in a concentration of 30 μg/ml, then cells were exposed to hypoxia treatment (1% O2, 5% CO2 in nitrogen gas) for 24 hours. A part of the control cultures were treated with water used as the solvent, and another part of them was not exposed to hypoxia. At the end of the hypoxic treatment, medium was removed and cells were washed twice with cold PBS. Cells lysates were prepared in 0.05% Triton X-100 containing phosphate buffer (0.05 M) and after centrifugation (2 min. […]) the LDH activity of the supernatant was determined on the basis of NADH consumption in the presence of sodium piruvate substrate.
The LDH activity of the cells treated with the test compounds and compared to the activity of the control exposed to hypoxia is shown in Table 6.

[7] = test system: CD-1 female mice; experiment: Prevention of streptozotocin (SZ)-induced type I diabetes mellitus on mice, blood glucose; assay type: in vivo, mouse
Protocol: The experiments were carried out on CD-1 female mice weighing 17-19 g (Charles River, Hungary). The animals were divided into three groups. Each group consisted of 10 animals. The first group received 160 mg/kg of streptozotocin, i.p. (Sigma), the second group received 160 mg/kg of streptozotocin, and 200 mg/kg of the compound of Example 2 p.o., the third group served as the control. The blood glucose concentration was measured on the third day. The animals were killed, serum samples were taken for insulin determination, and pancreases were removed for histological studies. The blood glucose concentrations can be seen in Table 3.

SMILES	CPTI test in % [1]	Activity (HSP-70 promoter luciferase) [2]	responders at 1 mg/kg [3]	responders at 5 mg/kg [3]	effect on survival of reperfusion arrhythmia, in words [3]	IC50 [4]	inhibition at 0.2 µg/mL ([5]; concentration 0.2 μg/ml, read-out: Enzyme inhibition, %)	inhibition at 0.5 µg/mL ([5]; read-out: Enzyme inhibition, %)	inhibition at 1 µg/mL ([5]; read-out: Enzyme inhibition, %)	activity at 30 µg/mL [6]	GLUCOSE (mean ± s.d.) ([7]; 160 mg/kg streptozotocin i.p. + 200 mg/kg compound p.o., blood, third day, control 4.78 ± 2.13)	blood glucose concentration enhanced by streptozotocin, in words ([7]; 200 mg/kg p.o.)	inhibition at 2 µg/mL ([5]; concentration 2 μg/ml, read-out: Enzyme inhibition, %)	reverse transcriptase inhibiting effect compared with Nevirapin and AZT, in words [5]
NC(C=Cc1ccccc1)=NOCCCN1CCCCC1 [Example 1, O-(3-Piperidino-propyl)-cinnamic Acid Amidoxime Dihydrochloride]	60.1 ± 2.1%	107	70%	46%	similarly outstanding effect	13.9 µM	6%	29%	44%	–	–	–	–	–
COc1ccc(C=CC(N)=NOCCCN2CCCCC2)cc1OC [Example 2, O-(3-Piperidino-propyl)-3,4-Dimethoxycinnamic Acid Amidoxime Hydrochloride]	–	–	41.7%	100%	–	15 µM	–	–	–	118%	8.16 ± 0.65	remarkably reduces the blood glucose concentration	–	–
NC(C=Cc1cccnc1)=NOCCCN1CCCCC1 [Example 3, O-(3-Piperidino-propyl)-3-(3-Pyridyl)acrylic Acid Amidoxime Hydrochloride]	68.8 ± 3.2%	207	–	40%	–	8.32 µM	–	7%	45%	–	–	–	70%	higher than that of Nevirapin
NC(C=Cc1ccccc1)=NOCC(O)CN1CCCCC1 (stereo not drawn) [Example 4, O-(3-Piperidino-2-hydroxy-propyl)-cinnamic Acid Amidoxime Dihydrochloride]	–	250	16.7%	81.8%	similarly outstanding effect	27 µM	–	–	–	118%	–	–	–	higher than that of Nevirapin
